Laboratory results: patent publication US20250084078A1, “FUSED RING-SUBSTITUTED SIX-MEMBERED HETEROCYCLIC COMPOUND, AND PREPARATION METHOD THEREFOR AND USE THEREOF” (GENFLEFT THERAPEUTICS (SHANGHAI) INC., priority 2022, published 2025)

The molecules below were run against HPK1 (Homo sapiens, UniProt Q92918) (assay: SLP76 phosphorylation assay (intracellular HPK1 inhibitory activity, p-SLP76 S376 ELISA in Jurkat cells)). Conditions: p-SLP76 IC50, Jurkat, Clone E6-1 cells; 1 h compound pre-incubation; anti-CD3 beads stimulation 20 min; Phospho-SLP-76 (Ser376) ELISA.
Sequence of HPK1 (Q92918 whole entry): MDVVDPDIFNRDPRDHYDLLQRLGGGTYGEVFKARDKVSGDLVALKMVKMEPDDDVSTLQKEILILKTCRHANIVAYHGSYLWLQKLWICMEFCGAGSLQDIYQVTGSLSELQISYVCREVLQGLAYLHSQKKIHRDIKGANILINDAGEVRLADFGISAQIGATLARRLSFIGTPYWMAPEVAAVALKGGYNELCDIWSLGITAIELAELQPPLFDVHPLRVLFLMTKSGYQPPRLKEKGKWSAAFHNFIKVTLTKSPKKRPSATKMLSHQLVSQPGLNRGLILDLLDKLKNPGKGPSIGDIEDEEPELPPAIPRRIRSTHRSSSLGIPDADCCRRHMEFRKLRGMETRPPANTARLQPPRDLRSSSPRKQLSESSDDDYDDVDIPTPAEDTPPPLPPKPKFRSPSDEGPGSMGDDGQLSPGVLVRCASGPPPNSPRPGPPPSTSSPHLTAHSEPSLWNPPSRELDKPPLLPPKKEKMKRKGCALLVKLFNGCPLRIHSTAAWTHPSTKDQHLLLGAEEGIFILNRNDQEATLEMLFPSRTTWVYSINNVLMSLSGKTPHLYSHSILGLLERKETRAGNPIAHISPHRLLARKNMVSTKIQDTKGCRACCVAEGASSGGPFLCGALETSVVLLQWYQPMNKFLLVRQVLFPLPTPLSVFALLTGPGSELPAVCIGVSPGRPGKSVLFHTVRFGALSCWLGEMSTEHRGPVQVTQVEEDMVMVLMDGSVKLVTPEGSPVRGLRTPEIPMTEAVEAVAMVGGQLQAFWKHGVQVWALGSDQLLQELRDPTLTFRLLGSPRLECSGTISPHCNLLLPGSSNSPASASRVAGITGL
Description: SLP76 Phosphorylation Assay
Intracellular HPK1 inhibitory activity was tested by the detection of SLP76 phosphorylation at S376.
Preparation of 1000× drug stock plate: a 1000× compound stock plate was prepared. […] The compound stock plate was sealed with a sealing film and stored in a −20° C. refrigerator for later use.
Preparation of Beads wash buffer: 0.1 mL FBS and 0.4 mL 0.5 M EDTA (with a final concentration of 2 mM) were added to 100 mL PBS and stored in a 4° C. refrigerator for later use.
100× Protease Inhibitor Cocktail in 1/20 total volume was added and stored on wet ice for later use. The buffer was ready to use.
Cell inoculation and dosing: the 1000× drug stock plate was taken and melted at room temperature in the dark. […] Jurkat cells in the logarithmic growth phase were selected and collected. […] The cells were inoculated into a 96-well plate (the volume was 90 μL per well), and a blank control well (without cells inoculation, and in which 110 μL of medium was added) was set. 10 μL of a drug-containing culture medium (10×) was transferred from the 10× drug intermediate plate into the 96-well cell plate (with a final concentration of 0.1% DMSO), and set a DMSO control group (in which 0.1% DMSO was added to the treated cells), a stimulated control group (in which 10 μL of culture medium was added to treat cells) and an unstimulated group (in which 10 μL of culture medium was added to treat cells). The wells were duplicated, gently patted, mixed, and then placed into a 5% CO2 incubator at 37° C. for 1 h.
Anti-CD3 beads stimulation: Dynabeads anti-human CD3 was taken, shaken, and mixed for 60 s. The required volume of beads was pipetted, and an equal volume or at least 1 mL of washing solution was added to wash once. Fresh complete medium was then added to resuspend and adjust the density of the beads to 4×10^7/mL, and the beads were placed on ice for later use. At the end of drug pre-incubation, the cell culture plate was taken out. 10 μL Dynabeads anti-human CD3 was added to each well to treat the cells, and 10 μL the culture medium was added to the unstimulated group. The cell culture plate was shaken to mix well at 2500 rpm for 10 s, and then placed into a 5% CO2 incubator at 37° C. and continued to culture for 20 min.
Detection of p-SLP76 protein level: PathScan Phospho-SLP-76 (Ser376) Sandwich ELISA Kit was applied to detect p-SLP76 protein level. At the end of the Anti-CD3 beads stimulation, the cell culture plate was removed from the incubator. […] After lysis, the cell culture plate was centrifuged at 4° C., 400×g for 5 min. 25 μL of sample and 75 μL of sample diluent were added to each well, and the plate was placed in a 5% CO2 incubator at 37° C. for 2 h. The subsequent detection steps were carried out following the kit instructions, and the absorbance (OD value) of each well was read at 450 nm by a microplate reader.
`Cc1c[nH]c2ncc(-c3cc4c(c(C5COCCN5)c3)CN(C(=O)[C@](C)(O)C(F)(F)F)CC4)cc12` (single isomer, unassigned) [Compound Z309-1] was tested, and the IC50 was 82.6 nM.
Molecule `O=C(N1CCc2cc(-c3cnc4[nH]cc(Cl)c4n3)cc([C@@H]3COCCN3)c2C1)N1C[C@H]2CC[C@@H]1CO2` (single isomer, unassigned) [Compound Z591] has an IC50 of 275 nM.
Work on `Cc1c[nH]c2ncc(-c3cc4c(c([C@@H]5COCCN5)c3)CN(C(=O)N3C[C@H]5CC[C@@H]3CO5)CC4)cc12` (single isomer, unassigned) [Compound Z643] yielded an IC50 of 294 nM.
`COC1(C(=O)N2CCc3cc(-c4cnc5[nH]cc(C)c5c4)cc([C@@H]4COCCN4)c3C2)CC1` [Compound Z373, (R)-(1-methoxycyclopropyl)(6-(3-methyl-1H-pyrrolo[2,3-b]pyridin-5-yl)-8-(morpholin-3-yl)-3,4-dihydroisoquinolin-2(1H)-yl)methanone] was tested, and the IC50 was 159 nM.
`O=C(N1CCc2cc(-c3cnc4[nH]cc(Cl)c4c3)cc([C@@H]3COCCN3)c2C1)C1(O)CC1` [Compound Z435, (R)-(6-(3-chloro-1H-pyrrolo[2,3-b]pyridin-5-yl)-8-(morpholin-3-yl)-3,4-dihydroisoquinolin-2(1H)-yl)(1-hydroxycyclopropyl)methanone] gave an IC50 of 258 nM.
`Cc1c[nH]c2ncc(-c3cc4c(c([C@@H]5COCCN5)c3)CN(C(=O)N3CCO[C@@H](C)C3)CC4)cc12` [Compound Z452, (6-(3-methyl-1H-pyrrolo[2,3-b]pyridin-5-yl)-8-((R)-morpholin-3-yl)-3,4-dihydroisoquinolin-2(1H)-yl)((S)-2-methylmorpholine)methanone] was tested, and the IC50 was 238 nM.
`Cc1c[nH]c2ncc(-c3cc4c(c([C@@H]5COCCN5)c3)CN(C(=O)N3CCOC(C)(C)C3)CC4)cc12` [Compound Z453, (R)-(2,2-dimethylmorpholine)(6-(3-methyl-1H-pyrrolo[2,3-b]pyridin-5-yl)-8-(morpholin-3-yl)-3,4-dihydroisoquinolin-2(1H)-yl)methanone] showed an IC50 of 148 nM.
In the case of `Cc1c[nH]c2ncc(-c3cc4c(c([C@@H]5COCCN5)c3)CN(C3CCOCC3)CC4)cc12` [Compound Z454, (R)-3-(6-(3-methyl-1H-pyrrolo[2,3-b]pyridin-5-yl)-2-(tetrahydro-2H-pyran-4-yl)-1,2,3,4-tetrahydroisoquinolin-8-yl)morpholine], the IC50 is reported as 655 nM.
`Cc1n[nH]c2ncc(-c3cc4c(c([C@@H]5COCCN5)c3)CN(C(=O)C(C)(C)O)CC4)cc12` [Compound Z455, (R)-2-hydroxy-2-methyl-1-(6-(3-methyl-1H-pyrazolo [3,4-b]pyridin-5-yl)-8-(morpholin-3-yl)-3,4-dihydroisoquinolin-2(1H)-yl)propan-1-one] showed an IC50 of 4430 nM.
Molecule `Cc1c[nH]c2ncc(-c3cc4c(c([C@@H]5COCCN5)c3)CN(C(=O)c3cnn(C5CC5)c3)CC4)cc12` [Compound Z456] has an IC50 of 315 nM.
`Cc1c[nH]c2ncc(-c3cc4c(c([C@@H]5COCCN5)c3)CN(C(=O)N3CC(C)OCC3C)CC4)cc12` (stereo partly drawn) [Compound Z458, (2,5-dimethylmorpholine)(6-(3-methyl-1H-pyrrolo[2,3-b]pyridin-5-yl)-8-((R)-morpholin-3-yl)-3,4-dihydroisoquinolin-2(1H)-yl)methanone] gave an IC50 of 127 nM.
With `Cc1c[nH]c2ncc(-c3cc4c(c([C@@H]5COCCN5)c3)CN(C(=O)N3CC(C)OC(C)C3)CC4)cc12` (stereo partly drawn) [Compound Z459, (2,6-dimethylmorpholine)(6-(3-methyl-1H-pyrrolo[2,3-b]pyridin-5-yl)-8-((R)-morpholin-3-yl)-3,4-dihydroisoquinolin-2(1H)-yl)methanone] the IC50 was 171 nM.
In the case of `Cc1c[nH]c2ncc(-c3cc4c(c([C@@H]5COCCN5)c3)CN(C(=O)N3C(C)COCC3C)CC4)cc12` (stereo partly drawn) [Compound Z460, (3,5-dimethylmorpholine)(6-(methyl-methyl-1H-pyrrolo[2,3-b]pyridin-5-yl)-8-((R)-morpholin-3-yl)-3,4-dihydroisoquinolin-2(1H)-yl)methanone], the IC50 is reported as 177 nM.
In the case of `COC1CN(C(=O)N2CCc3cc(-c4cnc5[nH]cc(C)c5c4)cc([C@@H]4COCCN4)c3C2)C(C)(C)C1` (stereo partly drawn) [Compound Z461, (4-methoxy-2,2-dimethylpyrrolidin-1-yl)(6-(3-methyl-1H-pyrrolo[2,3-b]pyridin-5-yl)-8-((R)-morpholin-3-yl)-3,4-dihydroisoquinolin-2(1H)-yl)methanone], the IC50 is reported as 195 nM.
`Cc1c[nH]c2ncc(-c3cc4c(c([C@@H]5COCCN5)c3)CN(C(=O)N3CC5CCC(C3)N5C)CC4)cc12` [Compound Z462] was tested, and the IC50 was 255 nM.
Molecule `Cc1c[nH]c2ncc(-c3cc4c(c([C@@H]5COCCN5)c3)CN(C(=O)N3C[C@@H]5C[C@H]3CO5)CC4)cc12` [Compound Z463] has an IC50 of 293 nM.
`CCc1c(F)[nH]c2ncc(-c3cc4c(c([C@@H]5COCCN5)c3)CN(C(=O)C(C)(C)O)CC4)cc12` [Compound Z464, (R)-3-(6-(3-ethyl-2-fluoro-1H-pyrrolo[2,3-b]pyridin-5-yl)-2-(2-hydroxy-2-methylpropanoyl)-1,2,3,4-tetrahydroisoquinolin-8-yl)morpholine] showed an IC50 of 193 nM.
With `CC(C)(O)C(=O)N1CCc2cc(-c3cnc4[nH]cc(Cl)c4n3)cc([C@@H]3COCCN3)c2C1` [Compound Z465, (R)-3-(6-(7-chloro-5H-pyrrolo[2,3-b]pyrazin-2-yl)-2-(2-hydroxy-2-methylpropanoyl)-1,2,3,4-tetrahydroisoquinolin-8-yl)morpholine] the IC50 was 144 nM.
`COCC(=O)N1CCc2cc(-c3cnc4[nH]cc(Cl)c4c3)cc([C@@H]3COCCN3)c2C1` [Compound Z466, (R)-1-[6-(3-chloro-1H-pyrrolo[2,3-b]pyridin-5-yl)-8-morpholin-3-yl-3,4-dihydroisoquinolin-2(1H)-yl]-2-methoxyethan-1-one] gave an IC50 of 306 nM.
`Cc1c[nH]c2ncc(-c3cc4c(c([C@@H]5COCCN5)c3)CN(S(=O)(=O)C3CC3)CC4)cc12` [Compound Z467, (R)-3-[2-cyclopropylsulfonyl-6-(3-methyl-1H-pyrrolo[2,3-b]pyridin-5-yl)-1,2,3,4-tetrahydroisoquinolin-8-yl]morpholine] was tested, and the IC50 was 385 nM.
In the case of `Cc1ncc(C(=O)N2CCc3cc(-c4cnc5[nH]cc(C)c5c4)cc([C@@H]4COCCN4)c3C2)cn1` [Compound Z468, (R)-(2-methylpyrimidin-5-yl)-[6-(3-methyl-1H-pyrrolo[2,3-b]pyridin-5-yl)-8-[morpholin-3-yl]-3,4-dihydroisoquinolin-2(1H)-yl]methanone], the IC50 is reported as 340 nM.
`CN1C2CCC1CN(C(=O)N1CCc3cc(-c4cnc5[nH]cc(Cl)c5c4)cc([C@@H]4COCCN4)c3C1)C2` [Compound Z470] gave an IC50 of 127 nM.
With `Cc1c[nH]c2ncc(-c3cc4c(c([C@@H]5COCCN5)c3)CN(C(=O)N3C5CCC3CN(C)C5)CC4)cc12` [Compound Z471, (6-(3-methyl-1H-pyrrolo[2,3-b]pyridin-5-yl)-8-((R)-morpholin-3-yl)-3,4-dihydroisoquinolin-2(1H)-yl)(3-methyl-3,8-diazabicyclo[3.2.1]octan-8-yl)methanone] the IC50 was 180 nM.
For `CN1CC2CCC(C1)N2C(=O)N1CCc2cc(-c3cnc4[nH]cc(Cl)c4c3)cc([C@@H]3COCCN3)c2C1` [Compound Z472], the IC50 was 216 nM.
Molecule `O=C(N1CCc2cc(-c3cnc4[nH]cc(F)c4c3)cc([C@@H]3COCCN3)c2C1)N1CC2CCC(C1)O2` [Compound Z475] has an IC50 of 117 nM.
Molecule `Cc1c[nH]c2ncc(-c3cc4c(c([C@@H]5COCCN5)c3)CN(C(=O)c3cnn(C(C)C)c3)CC4)cc12` [Compound Z477] has an IC50 of 422 nM.
`CO[C@@H]1CCN(C(=O)N2CCc3cc(-c4cnc5[nH]cc(C)c5c4)cc([C@@H]4COCCN4)c3C2)C1` [Compound Z478] gave an IC50 of 329 nM.
With `Cc1c[nH]c2ncc(-c3cc4c(c([C@@H]5COCCN5)c3)CN(C(=O)N3CCOCC3(C)C)CC4)cc12` [Compound Z479, (R)-(3,3-dimethylmorpholine)(6-(3-methyl-1H-pyrrolo[2,3-b]pyridin-5-yl)-8-(morpholin-3-yl)-3,4-dihydroisoquinolin-2(1H)-yl)methanone] the IC50 was 147 nM.
With `Cc1c[nH]c2ncc(-c3cc4c(c([C@@H]5COCCN5)c3)CN(C(=O)N3CCOC[C@H]3C)CC4)cc12` [Compound Z480, (6-(3-methyl-1H-pyrrolo[2,3-b]pyridin-5-yl)-8-((R)-morpholin-3-yl)-3,4-dihydroisoquinolin-2(1H)-yl)((R)-3-methylmorpholino)methanone] the IC50 was 118 nM.
For `Cc1c(Cl)[nH]c2ncc(-c3cc4c(c([C@@H]5COCCN5)c3)CN(C(=O)C(C)(C)O)CC4)cc12` [Compound Z481, (R)-1-(6-(2-chloro-3-methyl-1H-pyrrolo[2,3-b]pyridin-5-yl)-8-(morpholin-3-yl)-3,4-tetrahydroisoquinolin-2(1H)-yl)-2-hydroxy-2-methylpropan-1-one], the IC50 was 443 nM.
`Cc1c[nH]c2ncc(-c3cc4c(c([C@@H]5COCCN5)c3)CN(C(=O)N3CCN(C)CC3)CC4)cc12` [Compound Z482, (R)-(6-(3-methyl-1H-pyrrolo[2,3-b]pyridin-5-yl)-8-(morpholin-3-yl)-3,4-dihydroisoquinolin-2(1H)-yl)(4-methylpiperazin-1-yl)methanone] showed an IC50 of 311 nM.
Molecule `O=C(N1CCOCC1)N1CCc2cc(-c3cnc4[nH]cc(Cl)c4c3)cc([C@@H]3COCCN3)c2C1` [Compound Z483, (R)-(6-(3-chloro-1H-pyrrolo[2,3-b]pyridin-5-yl)-8-(morpholin-3-yl)-3,4-dihydroisoquinolin-2(1H)-yl)(morpholine)methanone] has an IC50 of 112 nM.
With `Cc1c[nH]c2ncc(-c3cc4c(c([C@@H]5COCCN5)c3)CN(C(=O)N3CCO[C@H](C)C3)CC4)cc12` [Compound Z484, (6-(3-methyl-1H-pyrrolo[2,3-b]pyridin-5-yl)-8-((R)-morpholin-3-yl)-3,4-dihydroisoquinolin-2(1H)-yl)((R)-2-methylmorpholino)methanone] the IC50 was 364 nM.
With `O=C(N1CCc2cc(-c3cnc4[nH]cc(Cl)c4c3)cc([C@@H]3COCCN3)c2C1)C1(O)CCOCC1` [Compound Z485, (R)-(6-(3-chloro-1H-pyrrolo[2,3-b]pyridin-5-yl)-8-(morpholin-3-yl)-3,4-dihydroisoquinolin-2(1H)-yl)(4-hydroxytetrahydro-2H-pyran-4-yl)methanone] the IC50 was 126 nM.
